Measured values as given in ChEMBL document CHEMBL1132177, “PTP1B inhibition and antihyperglycemic activity in the ob/ob mouse model of novel 11-arylbenzo[b]naphtho[2,3-d]furans and 11-arylbenzo[b]naphtho[2,3-d]thiophenes” (J Med Chem, 1999).

Legend:
[1] = test system: Mus musculus; experiment: The compound was tested in vivo(ob/ob mouse) for intestinal absorption against insulin, at a concentration of 100 mg/kg/day.; assay type: functional
[2] = test system: Mus musculus; experiment: The compound was tested in vivo(ob/ob mouse) for intestinal absorption against plasma glucose at a concentration of 100 mg/kg/day.; assay type: functional
[3] = test system: Mus musculus; experiment: The compound was tested in vivo(ob/ob mouse) for intestinal absorption against insulin, at a concentration of 90 mg/kg/day.; assay type: functional
[4] = test system: Mus musculus; experiment: The compound was tested in vivo(ob/ob mouse) for intestinal absorption against plasma glucose at a concentration of 90 mg/kg/day.; assay type: functional
[5] = test system: Mus musculus; experiment: The compound was tested in vivo(ob/ob mouse) for intestinal absorption against plasma glucose at a concentration of 25 mg/kg/day.; assay type: functional
[6] = test system: Mus musculus; experiment: The compound was tested in vivo(ob/ob mouse) for intestinal absorption against plasma glucose at a concentration of 10 mg/kg/day.; assay type: functional
[7] = test system: Mus musculus; experiment: The compound was tested in vivo(ob/ob mouse) for intestinal absorption against insulin, at a concentration of 75 mg/kg/day.; assay type: functional
[8] = test system: Mus musculus; experiment: The compound was tested in vivo(ob/ob mouse) for intestinal absorption against plasma glucose at a concentration of 75 mg/kg/day.; assay type: functional
[9] = test system: Mus musculus; experiment: The compound was tested in vivo(ob/ob mouse) for intestinal absorption against plasma glucose at a concentration of 50 mg/kg/day.; assay type: functional
[10] = test system: Mus musculus; experiment: The compound was tested in vivo(ob/ob mouse) for intestinal absorption against insulin, at a concentration of 10 mg/kg/day.; assay type: functional
[11] = test system: Mus musculus; experiment: The compound was tested in vivo(ob/ob mouse) for intestinal absorption against insulin, at a concentration of 25 mg/kg/day.; assay type: functional
[12] = test system: Mus musculus; experiment: The compound was tested in vivo(ob/ob mouse) for intestinal absorption against insulin, at a concentration of 50 mg/kg/day.; assay type: functional
[13] = target: T1, Tyrosine-protein phosphatase non-receptor type 1 (Homo sapiens, UniProt P18031); experiment: The compound was tested for inhibitory activity against recombinant Protein-tyrosine phosphatase 1B (human).
T1 sequence (P18031 whole entry): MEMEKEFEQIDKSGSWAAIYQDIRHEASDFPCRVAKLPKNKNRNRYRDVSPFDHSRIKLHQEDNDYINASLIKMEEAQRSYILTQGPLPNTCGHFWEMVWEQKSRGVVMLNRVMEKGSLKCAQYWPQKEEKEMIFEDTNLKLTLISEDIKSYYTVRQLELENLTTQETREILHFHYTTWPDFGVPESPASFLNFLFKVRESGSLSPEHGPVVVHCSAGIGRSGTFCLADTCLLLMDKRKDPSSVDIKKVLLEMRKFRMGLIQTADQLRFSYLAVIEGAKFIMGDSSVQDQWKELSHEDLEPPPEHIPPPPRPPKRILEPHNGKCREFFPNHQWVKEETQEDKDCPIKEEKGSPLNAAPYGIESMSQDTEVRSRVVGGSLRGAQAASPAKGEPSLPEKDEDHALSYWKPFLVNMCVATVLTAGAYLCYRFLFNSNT

[14] = test system: Mus musculus; experiment: The compound was tested in vivo(ob/ob mouse) for intestinal absorption against plasma glucose at a concentration of 200 mg/kg/day.; assay type: functional
[15] = test system: Mus musculus; experiment: The compound was tested in vivo(ob/ob mouse) for intestinal absorption against insulin, at a concentration of 200 mg/kg/day.; assay type: functional
[16] = target: Receptor-type tyrosine-protein phosphatase alpha (Homo sapiens, UniProt P18433); experiment: The compound was tested in vitro for the inhibitory activity against Protein-tyrosine phosphatase 1 alpha (LRP) (human PTPases.)
Sequence of Receptor-type tyrosine-protein phosphatase alpha (P18433 whole entry): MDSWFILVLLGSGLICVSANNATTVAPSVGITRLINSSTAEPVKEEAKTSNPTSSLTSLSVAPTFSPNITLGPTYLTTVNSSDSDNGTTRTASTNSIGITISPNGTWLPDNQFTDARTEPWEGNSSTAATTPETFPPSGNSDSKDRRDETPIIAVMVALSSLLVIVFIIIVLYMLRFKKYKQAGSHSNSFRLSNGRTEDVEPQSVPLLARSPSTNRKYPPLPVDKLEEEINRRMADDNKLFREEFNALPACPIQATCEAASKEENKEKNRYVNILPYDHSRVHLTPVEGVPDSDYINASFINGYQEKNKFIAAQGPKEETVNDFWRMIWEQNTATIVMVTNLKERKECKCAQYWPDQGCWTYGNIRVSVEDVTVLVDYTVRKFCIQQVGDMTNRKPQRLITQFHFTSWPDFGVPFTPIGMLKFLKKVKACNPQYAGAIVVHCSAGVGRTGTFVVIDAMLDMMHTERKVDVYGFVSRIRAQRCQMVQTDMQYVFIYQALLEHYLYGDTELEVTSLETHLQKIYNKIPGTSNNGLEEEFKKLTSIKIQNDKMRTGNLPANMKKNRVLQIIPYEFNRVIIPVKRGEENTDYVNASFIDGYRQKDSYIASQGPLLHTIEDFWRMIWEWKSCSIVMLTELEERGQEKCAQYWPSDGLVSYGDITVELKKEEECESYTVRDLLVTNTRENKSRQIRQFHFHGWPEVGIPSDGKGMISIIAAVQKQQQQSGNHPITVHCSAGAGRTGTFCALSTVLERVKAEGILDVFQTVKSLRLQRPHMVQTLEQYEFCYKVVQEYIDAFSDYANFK

[17] = target: T2, Receptor-type tyrosine-protein phosphatase C (Homo sapiens, UniProt P08575); experiment: The compound was tested in vitro for the inhibitory activity against CD45 antigen (human PTPases.)
T2 sequence (P08575 whole entry): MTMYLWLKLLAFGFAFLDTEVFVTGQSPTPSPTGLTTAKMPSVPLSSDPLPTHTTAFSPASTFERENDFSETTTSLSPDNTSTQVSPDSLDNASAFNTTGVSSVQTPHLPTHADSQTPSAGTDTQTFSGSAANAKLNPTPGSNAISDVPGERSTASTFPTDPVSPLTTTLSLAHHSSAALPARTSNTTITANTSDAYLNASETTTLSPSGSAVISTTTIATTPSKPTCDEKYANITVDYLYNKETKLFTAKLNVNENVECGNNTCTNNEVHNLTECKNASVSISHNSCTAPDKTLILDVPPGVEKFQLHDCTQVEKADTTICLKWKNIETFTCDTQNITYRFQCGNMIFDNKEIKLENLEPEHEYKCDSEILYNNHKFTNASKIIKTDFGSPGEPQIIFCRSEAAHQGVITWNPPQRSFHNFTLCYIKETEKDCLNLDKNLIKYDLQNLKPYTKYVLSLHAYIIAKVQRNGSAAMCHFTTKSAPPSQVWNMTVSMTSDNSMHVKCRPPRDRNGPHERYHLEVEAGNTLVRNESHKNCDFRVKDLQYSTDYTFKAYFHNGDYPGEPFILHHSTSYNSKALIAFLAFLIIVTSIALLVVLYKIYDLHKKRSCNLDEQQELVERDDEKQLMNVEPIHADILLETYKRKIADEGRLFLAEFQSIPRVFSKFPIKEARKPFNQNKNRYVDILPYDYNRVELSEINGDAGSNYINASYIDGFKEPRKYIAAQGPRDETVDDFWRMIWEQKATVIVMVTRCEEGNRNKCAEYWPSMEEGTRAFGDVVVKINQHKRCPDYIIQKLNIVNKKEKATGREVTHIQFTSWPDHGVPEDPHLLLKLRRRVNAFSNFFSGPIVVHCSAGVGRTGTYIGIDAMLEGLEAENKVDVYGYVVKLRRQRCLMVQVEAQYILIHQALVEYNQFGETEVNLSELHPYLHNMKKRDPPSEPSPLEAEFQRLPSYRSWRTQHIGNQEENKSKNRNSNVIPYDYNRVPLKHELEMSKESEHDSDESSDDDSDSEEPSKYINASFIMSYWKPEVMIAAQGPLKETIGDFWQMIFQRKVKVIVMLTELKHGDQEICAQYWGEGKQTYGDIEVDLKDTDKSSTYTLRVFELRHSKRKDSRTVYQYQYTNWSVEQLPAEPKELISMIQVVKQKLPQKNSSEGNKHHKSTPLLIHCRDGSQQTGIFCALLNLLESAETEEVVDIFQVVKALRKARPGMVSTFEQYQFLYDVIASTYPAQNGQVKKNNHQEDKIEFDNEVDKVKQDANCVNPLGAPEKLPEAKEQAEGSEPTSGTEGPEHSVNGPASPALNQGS

[18] = target: Dual specificity protein phosphatase 3 (Homo sapiens, UniProt P51452); experiment: The compound was tested in vitro for the inhibitory activity against Dual specificity protein phosphatase 3 (SH-PTP1) (human PTPases.)
Sequence of Dual specificity protein phosphatase 3 (P51452 whole entry): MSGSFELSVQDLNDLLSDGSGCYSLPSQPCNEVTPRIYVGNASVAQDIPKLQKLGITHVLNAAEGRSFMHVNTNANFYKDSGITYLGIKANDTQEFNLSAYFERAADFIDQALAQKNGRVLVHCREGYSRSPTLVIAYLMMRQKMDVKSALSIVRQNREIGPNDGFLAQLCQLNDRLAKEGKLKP

[19] = target: T3, Tyrosine-protein phosphatase non-receptor type 12 (Homo sapiens, UniProt Q05209); experiment: The compound was tested in vitro for the inhibitory activity against Protein tyrosine phosphatase PEST (SH-PTP1) (human PTPases.)
T3 sequence (Q05209 whole entry): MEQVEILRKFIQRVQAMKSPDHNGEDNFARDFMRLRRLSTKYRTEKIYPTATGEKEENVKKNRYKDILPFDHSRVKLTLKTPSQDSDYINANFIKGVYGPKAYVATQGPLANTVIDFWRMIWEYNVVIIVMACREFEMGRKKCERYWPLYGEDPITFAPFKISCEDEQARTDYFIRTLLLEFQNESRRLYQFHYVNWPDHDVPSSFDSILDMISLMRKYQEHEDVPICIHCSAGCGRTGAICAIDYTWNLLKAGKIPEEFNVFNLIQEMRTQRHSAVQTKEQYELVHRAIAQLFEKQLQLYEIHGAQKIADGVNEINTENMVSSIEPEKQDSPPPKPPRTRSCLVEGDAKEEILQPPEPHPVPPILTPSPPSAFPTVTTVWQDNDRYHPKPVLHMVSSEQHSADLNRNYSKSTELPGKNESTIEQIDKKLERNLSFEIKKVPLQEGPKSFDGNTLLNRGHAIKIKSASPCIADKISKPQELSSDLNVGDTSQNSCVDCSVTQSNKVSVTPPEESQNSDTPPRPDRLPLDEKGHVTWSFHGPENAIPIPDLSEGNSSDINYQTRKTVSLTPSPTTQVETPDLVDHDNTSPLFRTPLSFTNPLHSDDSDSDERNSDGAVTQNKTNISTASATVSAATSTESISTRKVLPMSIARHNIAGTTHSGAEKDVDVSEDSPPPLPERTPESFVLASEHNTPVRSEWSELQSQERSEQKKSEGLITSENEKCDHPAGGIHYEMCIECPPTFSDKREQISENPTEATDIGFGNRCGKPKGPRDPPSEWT

[20] = test system: Mus musculus; experiment: The compound was tested in vivo(ob/ob mouse) for intestinal absorption against plasma glucose at a concentration of 5 mg/kg/day.; assay type: functional
[21] = test system: Mus musculus; experiment: The compound was tested in vivo(ob/ob mouse) for intestinal absorption against plasma glucose at a concentration of 1 mg/kg/day. (i.p.); assay type: functional; details: route intraperitoneal
[22] = target: Receptor-type tyrosine-protein phosphatase beta (Homo sapiens, UniProt P23467); experiment: The compound was tested in vitro for the inhibitory activity against Protein-tyrosine phosphatase beta (SH-PTP1) (human PTPases.)
Sequence of Receptor-type tyrosine-protein phosphatase beta (P23467 whole entry): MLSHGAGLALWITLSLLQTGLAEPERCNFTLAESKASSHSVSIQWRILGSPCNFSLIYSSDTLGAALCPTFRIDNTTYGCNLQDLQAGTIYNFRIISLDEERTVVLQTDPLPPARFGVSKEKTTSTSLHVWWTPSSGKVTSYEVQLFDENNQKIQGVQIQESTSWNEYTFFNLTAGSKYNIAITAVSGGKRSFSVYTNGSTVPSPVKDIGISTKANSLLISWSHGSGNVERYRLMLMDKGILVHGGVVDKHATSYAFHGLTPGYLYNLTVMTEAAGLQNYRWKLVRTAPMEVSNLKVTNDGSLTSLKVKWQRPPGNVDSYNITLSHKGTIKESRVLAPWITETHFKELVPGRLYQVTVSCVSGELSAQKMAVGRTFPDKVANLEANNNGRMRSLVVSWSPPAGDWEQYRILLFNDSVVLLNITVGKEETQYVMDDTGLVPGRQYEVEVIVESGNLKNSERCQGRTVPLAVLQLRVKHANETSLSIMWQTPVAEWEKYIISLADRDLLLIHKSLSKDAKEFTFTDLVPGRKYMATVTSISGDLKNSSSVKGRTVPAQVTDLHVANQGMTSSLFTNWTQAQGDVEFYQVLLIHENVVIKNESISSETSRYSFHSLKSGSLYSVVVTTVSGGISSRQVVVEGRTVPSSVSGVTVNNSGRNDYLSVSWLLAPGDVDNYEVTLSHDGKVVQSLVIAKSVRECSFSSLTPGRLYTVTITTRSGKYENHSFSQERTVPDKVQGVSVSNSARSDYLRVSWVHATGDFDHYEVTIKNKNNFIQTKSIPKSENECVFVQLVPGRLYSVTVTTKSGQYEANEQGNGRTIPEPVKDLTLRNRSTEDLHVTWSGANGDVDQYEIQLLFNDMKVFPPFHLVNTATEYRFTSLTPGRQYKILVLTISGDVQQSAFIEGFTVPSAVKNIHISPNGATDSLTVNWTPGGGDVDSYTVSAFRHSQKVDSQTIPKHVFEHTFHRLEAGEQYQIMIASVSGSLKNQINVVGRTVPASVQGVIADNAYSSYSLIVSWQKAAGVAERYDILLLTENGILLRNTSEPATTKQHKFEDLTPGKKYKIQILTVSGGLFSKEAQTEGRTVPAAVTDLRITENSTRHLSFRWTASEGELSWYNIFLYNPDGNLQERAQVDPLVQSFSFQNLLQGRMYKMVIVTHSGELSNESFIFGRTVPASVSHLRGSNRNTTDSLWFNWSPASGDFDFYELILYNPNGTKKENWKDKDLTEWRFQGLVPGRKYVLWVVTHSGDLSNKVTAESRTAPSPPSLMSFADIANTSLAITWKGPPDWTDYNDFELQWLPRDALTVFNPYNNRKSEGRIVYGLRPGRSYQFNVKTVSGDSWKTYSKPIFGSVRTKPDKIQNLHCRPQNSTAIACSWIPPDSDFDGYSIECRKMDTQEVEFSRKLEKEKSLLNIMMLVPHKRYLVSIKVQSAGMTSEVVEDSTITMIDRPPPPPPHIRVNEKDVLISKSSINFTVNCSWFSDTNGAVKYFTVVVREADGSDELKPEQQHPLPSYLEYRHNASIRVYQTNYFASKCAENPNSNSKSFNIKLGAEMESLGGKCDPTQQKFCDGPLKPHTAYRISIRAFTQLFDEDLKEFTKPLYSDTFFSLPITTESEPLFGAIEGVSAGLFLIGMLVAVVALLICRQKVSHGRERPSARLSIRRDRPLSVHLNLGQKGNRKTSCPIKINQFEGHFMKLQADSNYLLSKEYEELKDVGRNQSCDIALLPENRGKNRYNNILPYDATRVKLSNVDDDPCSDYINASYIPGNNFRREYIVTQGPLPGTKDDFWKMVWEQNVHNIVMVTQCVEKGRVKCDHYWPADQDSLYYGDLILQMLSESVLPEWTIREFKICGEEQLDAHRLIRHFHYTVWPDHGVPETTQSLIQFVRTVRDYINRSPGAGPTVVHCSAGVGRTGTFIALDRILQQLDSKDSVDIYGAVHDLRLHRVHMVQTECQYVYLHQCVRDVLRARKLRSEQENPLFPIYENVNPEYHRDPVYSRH

[23] = The compound was tested in vitro for the inhibitory activity against human HePTP360 (Hematopoietic protein tyrosine phosphatase)
[24] = test system: Mus musculus; experiment: The compound was tested in vivo(ob/ob mouse) for intestinal absorption against insulin, at a concentration of 5 mg/kg/day.; assay type: functional
[25] = target: Tyrosine-protein phosphatase non-receptor type 6 (Homo sapiens, UniProt P29350); experiment: The compound was tested in vitro for the inhibitory activity against Protein-tyrosine phosphatase 1C (SH-PTP1) (human PTPases.)
Sequence of Tyrosine-protein phosphatase non-receptor type 6 (P29350 whole entry): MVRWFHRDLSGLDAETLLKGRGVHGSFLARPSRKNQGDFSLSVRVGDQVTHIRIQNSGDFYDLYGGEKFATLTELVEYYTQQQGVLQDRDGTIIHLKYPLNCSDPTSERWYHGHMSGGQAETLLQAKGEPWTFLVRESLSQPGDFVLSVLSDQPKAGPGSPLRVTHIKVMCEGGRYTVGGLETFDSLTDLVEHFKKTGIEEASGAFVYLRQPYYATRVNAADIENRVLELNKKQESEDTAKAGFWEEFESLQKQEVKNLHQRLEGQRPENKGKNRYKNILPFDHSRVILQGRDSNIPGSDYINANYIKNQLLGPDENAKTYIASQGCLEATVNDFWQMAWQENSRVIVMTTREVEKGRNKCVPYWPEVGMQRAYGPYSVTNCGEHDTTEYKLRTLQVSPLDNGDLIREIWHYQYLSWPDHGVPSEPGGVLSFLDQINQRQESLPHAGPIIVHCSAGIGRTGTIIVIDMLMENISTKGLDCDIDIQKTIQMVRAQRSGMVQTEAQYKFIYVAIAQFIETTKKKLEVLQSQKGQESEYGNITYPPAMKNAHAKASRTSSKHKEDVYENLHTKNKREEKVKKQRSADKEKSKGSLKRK

[26] = target: T1, Tyrosine-protein phosphatase non-receptor type 1; experiment: The compound was tested in vitro for the inhibitory activity against hPTP1B (human PTPases.)
[27] = target: T1, Tyrosine-protein phosphatase non-receptor type 1; experiment: The compound was tested in vitro for the inhibitory activity against Protein-tyrosine phosphatase 1B (human PTPases.)

Oc1c(Br)cc(-c2c3ccccc3c(Br)c3sc4ccccc4c23)cc1Br
Decrease [1]: <15%
Decrease [2]: <15%

O=P(O)(O)COc1c(Br)cc(-c2c3ccccc3c(Br)c3sc4ccccc4c23)cc1Br
Decrease [3]: <15%
Decrease [4]: <15%

O=C(O)[C@@H](Cc1ccccc1)Oc1c(Br)cc(-c2c3ccccc3c(Br)c3sc4ccccc4c23)cc1Br
Decrease [5]: 26%
Decrease [6]: 26%
Decrease [7]: 85%
Decrease [8]: 50%
Decrease [9]: 35%
Decrease [10]: <15%
Decrease [11]: 72%
Decrease [12]: 71%

CC1(COc2ccc(CC3SC(=O)NC3=O)cc2)CCCCC1 (centres undefined) [CIGLITAZONE]
inhibition in vivo at 100 mg/kg/day [1]: 39%
inhibition in vivo at 100 mg/kg/day [2]: 43%

O=C(O)[C@@H](CCN1C(=O)c2ccccc2C1=O)Oc1c(Br)cc(-c2c3ccccc3c(Br)c3sc4ccccc4c23)cc1Br
IC50 [13]: 11 nM
inhibition in vivo at 100 mg/kg/day [1]: < 15%
inhibition in vivo at 100 mg/kg/day [2]: < 15%

Cc1c(C)c2c(c(C)c1O)CCC(C)(COc1ccc(CC3SC(=O)NC3=O)cc1)O2 (centres undefined) [TROGLITAZONE]
inhibition in vivo at 200 mg/kg/day [14]: 34%
inhibition in vivo at 200 mg/kg/day [15]: < 15%

O=C(O)[C@@H](Cc1ccccc1)Oc1c(Br)cc(-c2c3ccccc3c(Br)c3oc4ccccc4c23)cc1Br
IC50 [16]: 13 µM
IC50 [17]: 6.3 µM
IC50 [18]: 11 µM
Decrease [5]: 42%
Decrease [6]: 29%
IC50 [19]: 2200 nM
Decrease [10]: 69%
Decrease [11]: 86%
Decrease [20]: <15%
Decrease [21]: 38%
IC50 [22]: 500 nM
IC50 [23]: 2100 nM
Decrease [24]: 56%
IC50 [25]: 9 µM
IC50 [26]: 80 nM

O=C(O)COc1c(Br)cc(-c2c3ccccc3c(Br)c3sc4ccccc4c23)cc1Br
IC50 [16]: 17 µM
IC50 [27]: 390 nM
IC50 [17]: 9.1 µM
IC50 [18]: 7.9 µM
IC50 [19]: 2300 nM
IC50 [22]: 600 nM
IC50 [23]: 2700 nM
IC50 [25]: 5 µM
Decrease [1]: 61%
Decrease [2]: 23%
